Laboratory results taken from patent US20040147595A1, “Biofilm degrading or sloughing compositions and methods” (priority 2001, published 2004).

Assays:
bacterial growth = assay: Bacterial growth inhibition at the concentrations tested in the quorum sensor assay; type: cell-based
Source text: The natural compound 2 has an IIX40 0.75 where as compound 30 and […] have IIX40 of 0.01 and 0.51 respectively.

[1] = tested on: OHHL induced LuxR dependent expression of GFP; assay: Quantitative furanone inhibition of the LuxR-PluxI-gfp(ASV) quorum sensor in E. coli MT102 (pJBA89); type: cell-based, Escherichia coli; settings: gradient of furanone concentration lowering RFU to 40% versus OHHL concentration (5-100 nM)
Source text: To analyse the AHL antagonist activity of the halogenated furanones we tested the compounds for their ability to inhibit 3oxo-C6-HSL (OHHL) induced LuxR dependent expression of green fluorescent protein (GFP) from a Pgfp(ASV) fusion in the AHL monitor strain E. coli MT102 harbouring pJBA89 (Andersen et al., 2001).
The medium used is minimal ABT containing 0.5% glucose and 0.5% Casamino Acids. In growing cultures of the AHL monitor strain E. coli Mt102 (pJBA89) encoding […] and a P-gfp(ASV) fusion, GFP(ASV) is produced immediately upon OHHL addition specifically from the LuxR controlled P-gfp(ASV) fusion gene. The sensitivity is high (responsive to as little as 3 nm OHHL) and due to the instability built into the GFP (ASV) variant there is no background production of green fluoroscence (Andersen et al., 2001). GFP expression from the AHL monitor strain E. coli MT102 (pJBA89) and the control strain MT102 harbouring the lacl^q, Plas-gfp(ASV) IPTG inducible expression system pMH197 was quantified in the following way. Overnight cultures were diluted four fold in fresh medium and incubated for one hour at 30° C. while OHHL and furanone compounds in the required concentrations were mixed in the wells of microtiter dishes. […] When absolute values were required, green fluoroscence was measured on a fluorometer (model RF-1501; Shimadzu, Tokyo, Japan) act at an excitation wavelength of 475 nm and emission detection at 515 nm. To establish a correlation between the colour code of the ARGUS-50 captured images and green fluorescence, both colour and relative fluorescence units (RFU), were determined for a dilution series of an E. coli MT102 (pJBA89) culture which had been incubated with […]. […]
From the second plot, the furanone concentration reducing the relative activity to 40% (ID60) is determined for each OHHL concentration. […]
To enable easy comparison of the strength of the furanones, an inhibition index (IIX40) is calculated for each furanone compound. […]

[2] = tested on: OHHL induced LuxR dependent expression of GFP; settings: E. coli MT102 (pJBA89); cited from earlier work
[3] = tested on: V. fisheri lux quorum sensing system (LuxR); assay: V. fisheri luxR PluxI-gfp(ASV) reporter in PAO-JP2 biofilm; type: cell-based, Pseudomonas aeruginosa; settings: 250 nM OHHL
Protocol: P. aeruginosa biofilms. Biofilms were grown at 30° C. in three-dimensional flow cells (Christensen et al., 1999) with individual channel dimensions of 0.3×4×40 mm supplied With ABt minimal medium supplemented with 2% LB. The flow system was assembled and prepared as described by Christensen et al. (1999). The substratum consisted of a microscope glass coverslip (Knittel 24×50 mm st1, Knittel Glaser, Braunschweig, Germany). Cultures for inoculation of the flow channels were prepared in the following way: P. aeruginosa strains were streaked on LB plates with the appropriate antibiotics and incubated for 24 h at 37° C. From each plate a single colony was used for inoculation of 10 ml ABt with 10% LB. The cultures were grown at, 30° C. for 18 h before they were diluted to an OD600 nm of 0.1 in sterile 0.9% NaCl and used for inoculation of the flow channels. Medium flow was kept at a constant rate of 3 mL/h, equivalent to a mean flow velocity of 0.7 mm/s, using a Watson-Marlow 205S peristaltic pump (Watson-Marlow, Falmouth, England). Biofilms were grown for 24 hours before being shifted to media containing AHL and furanone.
Scanning confocal laser microscopy (SCLM). Microscopic inspection and image acquisition were performed an a scanning confocal laser microscope (model TCS4D, Leica Lasertechnik GmbH, Heldelberg, Germany) equipped with a 63×/1.32-0.6 oil objective. The microscope was equipped with a motorized and programmable xy-stage, which was used for monitoring single colonies during the biofilm experiments. At the beginning of each online experiment, the microscope was programmed to track single randomly selected microcolonies; the sensitivity of photo multipliers and the laser intensity were adjusted and thereafter kept constant through out the duration of the experiments. Image scanning was carried out using the 488 nm and 568 nm lines of an Ar/Kr laser for detection of Gfp and Rfp, respectively. Visualization of captured images was performed using the IMARIS software package (Bitplane AG, Zúrich, Switzerland) running on a Silicon Graphics Indigo 2 workstation (Silicon Graphics, Mountain View, Calif. USA).
Repression of LuxR-activated quorum sensing controlled gene transcription. We speculated that the AHL-antagonstic properties of furanone 56 was specific to the P. aeruginosa las quorum sensing system. To test this, a previously published quorum sensing reporter based on the Vibro fisherf luxR gene and Pluxl-gfp(ASV) (Anderson at al, 2001; Wu et al, 2000) was transferred to PAO-JP2.

Row | SMILES | concentration slightly above which growth was inhibited (bacterial growth) | inhibition index (IIX40) [1] | lowest OHHL concentration the monitor strain responds to [2] | green fluorescence of biofilm [3]
1 | O=C1C=C(Br)/C(=C/Br)O1 [Compound 30] | above 10 nm | 0.01 mole of furanone per mmole of |  | 
2 | CCCC(=O)CC(=O)N[C@H]1CCOC1=O [OHHL, N-[3-oxo-hexanoyl]-L-homoserine lactone, reference compound] |  |  | 3 nm | developed within one hour
